Measurements taken from patent US20250304567A1, “PYRROLIDIONE DERIVATIVES AS INHIBITORS OF NF KAPPA B INDUCING KINASE” (priority 2022, published 2025).
Like-named read-outs stand apart in the source and are kept apart here.

What was measured:
[1] = test system: p-IKKa levels in L363 (NIK translocated multiple myeloma) cells; test: Effect of compounds on p-IKKa levels in L363 (NIK translocated multiple myeloma) cells (AlphaLISA SureFire Ultra p-IKKa Ser176/180); assay type: cell-based, human
Protocol: Assay 2: Effect of Compounds on p-IKKa Levels in L363 (NIK Translocated Multiple Myeloma) Cells
All compounds tested were dissolved and serially diluted in DMSO, 1:3 dilution for 11 points in an Echo compatible plate. 100% DMSO was added to columns 12 and 24 of the plate to serve as high and low signal controls. This compound plate was used to spot 20 nL of compound or DMSO into a Greiner 384 well TC plate (781080). The final DMSO concentration was 0.3% (v/v) in cell assays. Human L363 cells (ATCC) were cultured in RPM11640 medium supplemented with GlutaMax, non-essential amino acids, sodium pyruvate and 10% fetal bovine serum. Cells were routinely maintained at densities of 0.2×10^6 cells per ml-2×10^6 cells per mL at 37° C. in a humidified 5% CO2 atmosphere incubator. Cells were passaged twice a week splitting back to obtain the low density. The day before the assay, cells were washed twice in HBSS (Hank's Balanced Salt Solution), resuspended in Dulbecco's Modified Eagle Medium (DMEM)+0.5% IgG and protease free BSA (Jackson Immuno Research Laboratories), +/−250 ng/ml recombinant human B-cell activating factor (BAFF/BLyS/TNFSF13B) and incubated overnight at 37° C. in a humidified 5% CO2 atmosphere (bulk stimulation with or without BAFF). The next day, the cell concentration was adjusted to 1×10^7 cells/ml in DMEM+/−250 ng/ml BAFF+/−10 μM MG132 and plated at 10 μl/well into compound or DMSO spotted 384 well TC plates. Seeded cells were incubated at 37° C. in a humidified 5% CO2 atmosphere for 6 h. After 6 h, the plates were removed from the incubator and cell lysis was achieved by the addition of 2.5 μl 5× lysis buffer containing protease and phosphatase inhibitors, followed by shaking on a plate shaker at room temperature for 15 min. At the end of this incubation, lysed cells were sequentially treated and incubated with acceptor and donor bead mixes according to the manufacturer's protocol for a 1 plate/2-incubation suspension cell assay (AlphaLISA SureFire Ultra p-IKKa (Ser 176/180) Assay Kit (Perkin Elmer). Plates were read using an EnVision Multilabel Plate Reader (Perkin Elmer). Within an experiment, a concentration response curve for each compound was run in duplicate. The signal obtained in the test wells was normalized using high signal (BAFF stimulated cells, DMSO, MG132) and low signal (unstimulated cells, DMSO) controls. To determine the IC50, a sigmoidal curve was fitted to the plot of % inhibition versus Log10 compound concentration.

[2] = biological target: Recombinant Human NF-kappaB-Inducing Kinase (NIK/MAP3K14) (Homo sapiens, UniProt Q99558); test: Inhibition of auto-phosphorylation of recombinant human NIK/MAP3K14 activity (AlphaScreen); assay type: biochemical; details: 5 μM ATP, 1 nM NIK, average if tested more than once
Protocol: Assay 1: Inhibition of Auto-Phosphorylation of Recombinant Human NF-kappaB-Inducing Kinase (NIK/MAP3K14) Activity (AlphaScreen™)
NIK/MAP3K14 auto-phosphorylation activity was measured using the AlphaScreen™ (αscreen) format (Perkin Elmer). All compounds tested were dissolved in dimethyl sulfoxide (DMSO) and further dilutions were made in assay buffer. The final DMSO concentration was 0.7% (v/v) in assays. The assay buffer was 50 mM Tris pH 7.5 containing 1 mM EGTA (ethylene glycol tetraacetic acid), 1 mM DTT (dithiothreitol), 0.1 mM Na3VO4, 5 mM MgCl2, and 0.01% Tween®20. The assays were carried out in 384 well Proxiplates (Perkin Elmer). The incubations consisted of the compound, 5 μM Adenosine-5′-triphosphate (ATP), and 1 nM NIK/MAP3K14. Incubations were initiated by the addition of GST-tagged NIK/MAP3K14 enzyme, carried out for 2 h at 25° C. and terminated by addition of stop buffer containing anti-phospho-IKK Ser176/180 antibody. Protein A Acceptor and Glutathione-Donor beads were added before reading using an EnVision Multilabel Plate Reader (Perkin Elmer). The signal obtained in the wells was normalized using high (full enzyme activity, 0.7% DMSO) and low controls (no enzyme activity, 0.7% DMSO, no ATP). IC50's were determined by fitting a sigmoidal curve to % inhibition of control versus Log10 compound concentration.

[3] = Homo sapiens, L-363, p-IKKa levels in L363 cells, average if tested more than once, read-out: Assay 2 IC50
[4] = p-IKKa levels in L363 cells, average if tested more than once, read-out: Assay 2 IC50

Sequence of Recombinant Human NF-kappaB-Inducing Kinase (NIK/MAP3K14) (Q99558 whole entry): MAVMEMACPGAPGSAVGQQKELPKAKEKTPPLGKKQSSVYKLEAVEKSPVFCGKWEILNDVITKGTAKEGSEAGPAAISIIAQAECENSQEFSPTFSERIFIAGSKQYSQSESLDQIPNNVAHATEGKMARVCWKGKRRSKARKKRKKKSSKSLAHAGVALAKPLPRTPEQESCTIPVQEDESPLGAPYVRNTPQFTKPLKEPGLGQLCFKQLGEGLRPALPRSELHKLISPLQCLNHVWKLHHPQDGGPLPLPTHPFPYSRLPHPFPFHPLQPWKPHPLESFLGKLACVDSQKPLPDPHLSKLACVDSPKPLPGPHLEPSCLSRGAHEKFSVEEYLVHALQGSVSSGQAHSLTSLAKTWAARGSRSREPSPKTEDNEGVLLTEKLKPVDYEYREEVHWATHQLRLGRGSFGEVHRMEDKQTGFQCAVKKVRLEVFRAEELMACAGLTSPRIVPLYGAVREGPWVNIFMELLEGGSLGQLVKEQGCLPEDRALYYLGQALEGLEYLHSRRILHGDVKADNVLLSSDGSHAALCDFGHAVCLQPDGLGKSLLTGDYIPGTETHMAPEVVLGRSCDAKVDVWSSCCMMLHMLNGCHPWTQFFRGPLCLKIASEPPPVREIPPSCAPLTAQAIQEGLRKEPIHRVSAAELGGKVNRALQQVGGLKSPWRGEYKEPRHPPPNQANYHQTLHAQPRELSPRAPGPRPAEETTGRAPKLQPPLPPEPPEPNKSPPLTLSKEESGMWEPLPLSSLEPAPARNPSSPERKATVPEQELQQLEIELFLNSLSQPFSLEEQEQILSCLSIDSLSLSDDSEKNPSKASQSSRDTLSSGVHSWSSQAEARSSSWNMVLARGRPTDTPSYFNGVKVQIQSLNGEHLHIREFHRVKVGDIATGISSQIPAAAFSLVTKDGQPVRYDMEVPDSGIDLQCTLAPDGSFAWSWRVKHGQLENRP

SMILES | IC50 [1, 3] | IC50 [2] | IC50 [1, 4] | IC50 ([1]; Homo sapiens, L-363, read-out: Assay 2 IC50)
CN1CC[C@@](O)(c2ccnc(-c3ccn(-c4ccnc(Nc5ccn(C)n5)n4)n3)c2)C1=O (racemic) [Example 30, (R,S)-3-Hydroxy-1-methyl-3-(2-(1-(2-((1-methyl-1H-pyrazol-3-yl)amino)pyrimidin-4-yl)-1H-pyrazol-3-yl)pyridin-4-yl)pyrrolidin-2-one] | 100 to 500 nM | < 100 nM |  | 
CN1CCC(O)(c2ccnc(-c3cccc(-c4ccnc(Nc5ccn(C)n5)n4)n3)c2)C1=O (racemic) [Example 31, (R,S)-3-Hydroxy-1-methyl-3-(6′-(2-((1-methyl-1H-pyrazol-3-yl)amino)pyrimidin-4-yl)-[2,2′-bipyridin]-4-yl)pyrrolidin-2-one] | > 501 nM | > 501 nM |  | 
Cc1cn(-c2ccnc(Nc3ccn(C)n3)n2)nc1-c1cc(C2(O)CCN(C)C2=O)ccn1 (racemic) [Example 32, (R, S)-3-Hydroxy-1-methyl-3-(2-(4-methyl-1-(2-((1-methyl-1H-pyrazol-3-yl)amino)pyrimidin-4-yl)-1H-pyrazol-3-yl)pyridin-4-yl)pyrrolidin-2-one] | > 501 nM | < 100 nM |  | 
CN1C(=O)[C@@](O)(c2cccc(-c3nc(-c4ccnc(Nc5ccn(C)n5)n4)cs3)c2)C[C@H]1C(F)(F)F (relative stereo) [Example 38, (trans)-3-hydroxy-1-methyl-3-(3-(4-(2-((1-methyl-1H-pyrazol-3-yl)amino)pyrimidin-4-yl)thiazol-2-yl)phenyl)-5-(trifluoromethyl)pyrrolidin-2-one] |  | < 100 nM | 100 to 500 nM | 
CN1CC[C@@](O)(c2cccc(-c3nc(-c4ccnc(Nc5cnn(C6CCOC6)c5)n4)cs3)c2)C1=O (single isomer, unassigned) [Example 18] | 100 to 500 nM | < 100 nM |  | 
CN1CC[C@@](O)(c2cccc(-c3nc(-c4ccnc(Nc5cnn(C6CCOC6)c5)n4)cs3)c2)C1=O (single isomer, unassigned) [Example 19] |  | < 100 nM | < 100 nM | 
CN1CC[C@@](O)(c2cc(-c3csc(-c4ccnc(Nc5ccn(C)n5)n4)n3)ccc2F)C1=O (single isomer, unassigned) [Example 24] | > 501 nM | > 501 nM |  | 
CN1CC[C@](O)(c2cc(-c3csc(-c4ccnc(Nc5ccn(C)n5)n4)n3)ccc2F)C1=O (single isomer, unassigned) [Example 25] | > 501 nM | 100 to 500 nM |  | 
CN1CCC(O)(c2cc(F)cc(-c3csc(-c4ccnc(Nc5ccn(C)n5)n4)n3)c2)C1=O (single isomer, unassigned) [Example 26, 3-(3-fluoro-5-(2-(2-((1-methyl-1H-pyrazol-3-yl)amino)pyrimidin-4-yl)thiazol-4-yl)phenyl)-3-hydroxy-1-methylpyrrolidin-2-one] |  | > 501 nM | > 501 nM | 
CN1CCC(O)(c2cc(F)cc(-c3csc(-c4ccnc(Nc5ccn(C)n5)n4)n3)c2)C1=O (single isomer, unassigned) [Example 27, 3-(3-fluoro-5-(2-(2-((1-methyl-1H-pyrazol-3-yl)amino)pyrimidin-4-yl)thiazol-4-yl)phenyl)-3-hydroxy-1-methylpyrrolidin-2-one] |  | < 100 nM | 100 to 500 nM | 
CN1CCC(O)(c2ccc(F)c(-c3csc(-c4ccnc(Nc5ccn(C)n5)n4)n3)c2)C1=O (single isomer, unassigned) [Example 28, 3-(4-fluoro-3-(2-(2-((1-methyl-1H-pyrazol-3-yl)amino)pyrimidin-4-yl)thiazol-4-yl)phenyl)-3-hydroxy-1-methylpyrrolidin-2-one] |  | < 100 nM | < 100 nM | 
CN1CCC(O)(c2ccc(F)c(-c3csc(-c4ccnc(Nc5ccn(C)n5)n4)n3)c2)C1=O (single isomer, unassigned) [Example 29, 3-(4-fluoro-3-(2-(2-((1-methyl-1H-pyrazol-3-yl)amino)pyrimidin-4-yl)thiazol-4-yl)phenyl)-3-hydroxy-1-methylpyrrolidin-2-one] |  | 100 to 500 nM | > 501 nM | 
CN1CCC(O)(c2ccnc(-c3nc(-c4ccnc(Nc5ccn(C)n5)n4)cs3)c2)C1=O (single isomer, unassigned) [Example 33, 3-hydroxy-1-methyl-3-(2-(4-(2-((1-methyl-1H-pyrazol-3-yl)amino)pyrimidin-4-yl)thiazol-2-yl)pyridin-4-yl)pyrrolidin-2-one] |  | > 501 nM | > 501 nM | 
CN1CCC(O)(c2ccnc(-c3nc(-c4ccnc(Nc5ccn(C)n5)n4)cs3)c2)C1=O (single isomer, unassigned) [Example 34, 3-hydroxy-1-methyl-3-(2-(4-(2-((1-methyl-1H-pyrazol-3-yl)amino)pyrimidin-4-yl)thiazol-2-yl)pyridin-4-yl)pyrrolidin-2-one] |  | < 100 nM | 100 to 500 nM | 
CN1CC(F)(F)C(O)(c2cccc(-c3nc(-c4ccnc(Nc5ccn(C)n5)n4)cs3)c2)C1=O (single isomer, unassigned) [Example 35, 4,4-difluoro-3-hydroxy-1-methyl-3-(3-(4-(2-((1-methyl-1H-pyrazol-3-yl)amino)pyrimidin-4-yl)thiazol-2-yl)phenyl)pyrrolidin-2-one] |  | > 501 nM | > 501 nM | 
CN1CC(F)(F)C(O)(c2cccc(-c3nc(-c4ccnc(Nc5ccn(C)n5)n4)cs3)c2)C1=O (single isomer, unassigned) [Example 36, 4,4-difluoro-3-hydroxy-1-methyl-3-(3-(4-(2-((1-methyl-1H-pyrazol-3-yl)amino)pyrimidin-4-yl)thiazol-2-yl)phenyl)pyrrolidin-2-one] |  | < 100 nM | 100 to 500 nM | 
CC(Nc1nccc(-c2nc(-c3cccc(C4(O)CCN(C)C4=O)c3)cs2)n1)c1cnn(C)c1 (single isomer, unassigned) [Example 39] |  | < 100 nM | < 100 nM | 
CC(Nc1nccc(-c2nc(-c3cccc(C4(O)CCN(C)C4=O)c3)cs2)n1)c1cnn(C)c1 (single isomer, unassigned) [Example 40] |  | < 100 nM | > 501 nM | 
CC(Nc1nccc(-c2nc(-c3cccc(C4(O)CCN(C)C4=O)c3)cs2)n1)c1cc[nH]n1 (single isomer, unassigned) [Example 41] |  | < 100 nM | 100 to 500 nM | 
CC(Nc1nccc(-c2nc(-c3cccc(C4(O)CCN(C)C4=O)c3)cs2)n1)c1cc[nH]n1 (single isomer, unassigned) [Example 42] |  | < 100 nM | > 501 nM | 
Cc1cncnc1Nc1nccc(-c2csc(-c3cccc([C@]4(O)CCN(C)C4=O)c3)n2)n1 [Example 105, (R)-3-hydroxy-1-methyl-3-(3-(4-(2-((5-methylpyrimidin-4-yl)amino)pyrimidin-4-yl)thiazol-2-yl)phenyl)pyrrolidin-2-one] |  |  |  | > 501 nM
Cc1cc(CNc2nccc(-c3csc(-c4cccc([C@]5(O)CCN(C)C5=O)c4)n3)n2)n[nH]1 [Example 195] | > 501 nM |  |  | 
